System: Mycobacterium tuberculosis
Test: Antitubercular activity against Mycobacterium tuberculosis H37Rv ATCC 27294
Assay type: functional
Set-up: concentration or dose not given beside the values; unit not given here

Structure (SMILES)	Inhibition
CC1=C(C(=O)Nc2ccccc2Cl)C(c2ccc(Cl)cc2Cl)C(C(=O)Nc2ccccc2Cl)=C(C)N1	-0.9079
CSc1ccc(C2C(C(=O)Nc3ccccc3)=C(C)NC(C)=C2C(=O)Nc2ccccc2)cc1	0.3474
CC1=C(C(=O)Nc2ccc([N+](=O)[O-])cc2)C(c2ccccc2Cl)C(C(=O)Nc2ccc([N+](=O)[O-])cc2)=C(C)N1	1.2787
CC1=C(C(=O)Nc2ccccc2Cl)C(c2ccccc2O)C(C(=O)Nc2ccccc2Cl)=C(C)N1	-1.1949
CC1=C(C(=O)Nc2ccc([N+](=O)[O-])cc2)C(c2ccc(Cl)cc2Cl)C(C(=O)Nc2ccc([N+](=O)[O-])cc2)=C(C)N1	1.3802
CC1=C(C(=O)Nc2cccc([N+](=O)[O-])c2)C(c2ccc(Cl)cc2Cl)C(C(=O)Nc2cccc([N+](=O)[O-])c2)=C(C)N1	1.6901
COc1ccccc1NC(=O)C1=C(C)NC(C)=C(C(=O)Nc2ccccc2OC)C1c1ccc(N(C)C)cc1	1.1233
CC1=C(C(=O)Nc2ccc(Cl)cc2)C(c2ccc(O)cc2)C(C(=O)Nc2ccc(Cl)cc2)=C(C)N1	0.575
CC1=C(C(=O)Nc2cc(C)ccc2C)C(c2ccccc2O)C(C(=O)Nc2cc(C)ccc2C)=C(C)N1	-0.432
COc1ccccc1NC(=O)C1=C(C)NC(C)=C(C(=O)Nc2ccccc2OC)C1c1cccc([N+](=O)[O-])c1	0.2498
CSc1ccc(C2C(C(=O)Nc3ccc(C)cc3C)=C(C)NC(C)=C2C(=O)Nc2ccc(C)cc2C)cc1	0.158
COc1ccc(C2C(C(=O)Nc3ccccc3Cl)=C(C)NC(C)=C2C(=O)Nc2ccccc2Cl)cc1	-0.3679
CC1=C(C(=O)Nc2ccc([N+](=O)[O-])cc2)C(c2ccc(Cl)cc2)C(C(=O)Nc2ccc([N+](=O)[O-])cc2)=C(C)N1	0.2126
CC1=C(C(=O)Nc2ccccc2Cl)C(c2ccccc2S)C(C(=O)Nc2ccccc2Cl)=C(C)N1	-0.954
CC1=C(C(=O)Nc2cccc([N+](=O)[O-])c2)C(c2ccccc2O)C(C(=O)Nc2cccc([N+](=O)[O-])c2)=C(C)N1	1.0606
CSc1ccc(C2C(C(=O)Nc3ccc([N+](=O)[O-])cc3)=C(C)NC(C)=C2C(=O)Nc2ccc([N+](=O)[O-])cc2)cc1	1.5096
CC1=C(C(=O)Nc2ccc(C)cc2C)C(c2ccccc2)C(C(=O)Nc2ccc(C)cc2C)=C(C)N1	-0.865
CC1=C(C(=O)Nc2ccccc2Cl)C(c2ccccc2Cl)C(C(=O)Nc2ccccc2Cl)=C(C)N1	-0.6585
CC1=C(C(=O)Nc2ccc(C)cc2C)C(c2cccc([N+](=O)[O-])c2)C(C(=O)Nc2ccc(C)cc2C)=C(C)N1	0.0521
CC1=C(C(=O)Nc2cccc([N+](=O)[O-])c2)C(c2ccccc2)C(C(=O)Nc2cccc([N+](=O)[O-])c2)=C(C)N1	1.1949
COc1ccc(C2C(C(=O)Nc3cc(C)ccc3C)=C(C)NC(C)=C2C(=O)Nc2cc(C)ccc2C)cc1	-0.158
COc1ccccc1NC(=O)C1=C(C)NC(C)=C(C(=O)Nc2ccccc2OC)C1c1ccc(Cl)cc1Cl	1.0047
COc1ccccc1NC(=O)C1=C(C)NC(C)=C(C(=O)Nc2ccccc2OC)C1c1ccc(SC)cc1	1.1233
CSc1ccc(C2C(C(=O)Nc3cccc([N+](=O)[O-])c3)=C(C)NC(C)=C2C(=O)Nc2cccc([N+](=O)[O-])c2)cc1	1.6901
CC1=C(C(=O)Nc2cccc([N+](=O)[O-])c2)C(c2ccccc2Cl)C(C(=O)Nc2cccc([N+](=O)[O-])c2)=C(C)N1	1.5096
CC1=C(C(=O)Nc2ccc(Cl)cc2)C(c2cccc([N+](=O)[O-])c2)C(C(=O)Nc2ccc(Cl)cc2)=C(C)N1	-0.3888
CSc1ccc(C2C(C(=O)Nc3ccccc3Cl)=C(C)NC(C)=C2C(=O)Nc2ccccc2Cl)cc1	0.55
COc1cc(C2C(C(=O)Nc3ccc(Cl)cc3)=C(C)NC(C)=C2C(=O)Nc2ccc(Cl)cc2)cc(OC)c1OC	1.1949
COc1ccc(C2C(C(=O)Nc3ccc(Cl)cc3)=C(C)NC(C)=C2C(=O)Nc2ccc(Cl)cc2)c(O)c1	0.63
CC1=C(C(=O)Nc2ccccc2Cl)C(c2ccc(Cl)cc2)C(C(=O)Nc2ccccc2Cl)=C(C)N1	-0.6886

— ChEMBL document CHEMBL1135978, “Three-dimensional quantitative structure-activity relationship of 1,4-dihydropyridines as antitubercular agents” (2002)
